Laboratory results reported in patent publication US20040255343A1, “Caspase-9 deficient animals and the use thereof” (priority 1998, published 2004).

Tests used:
Caspase-9 −/− thymocytes [1] = assay: Apoptosis assay using thymocytes (Annexin V / 7-AAD, FACS); assay type: cell-based, mice; conditions: Caspase-9 −/− thymocytes vs wild type; 2 μM dexamethasone, 1 μM staurosporine or 1 μg/ml anti-mouse Fas antibody plus cycloheximide; 6 hr or 24 hr
Source text: To investigate the role of Caspase-9 in apoptosis pathways in other systems, we used primary cultures of thymocytes. Although thymocytes from Caspase9 −/− animals developed normally with no differences in the number of thymocytes or in the ratio of surface markers such as CD4, CD8 or CD3 (data not shown), we challenged the thymocytes with several apoptotic stimuli: dexamethasone, staurosporine, and anti-Fas antibody
(§1) Thymocytes were isolated from wild type and Caspase9 −/− mice. One million cells were treated with 2 μM dexamethasone (Sigma), 1 μM staurosporine (Sigma), 1 μg/ml anti-mouse Fas antibody (PharMingen) plus […] cycloheximide (Sigma), or 10% FCS medium only for 6 hr or 24 hr. Samples were stained with Annexin V (Boehringer Mannheim) and 7-aminoactinomycin D (7-AAD) (Sigma) to label apoptotic cells for FACS Sort (Becton Dickinson).

Caspase-9 −/− thymocytes [2] = assay: DNA fragmentation assay (DNA laddering on agarose gel); assay type: cell-based, mice
Method: as §1
DNA was isolated using a DNA isolation kit (LeMax Biotech) and subjected to electrophoresis on a 2% agarose gel. Gels were stained by ethidium bromide and images were taken by a scanner.

CN[C@@H]1C[C@H]2O[C@@](C)([C@@H]1OC)n1c3ccccc3c3c4c(c5c6ccccc6n2c5c31)C(=O)NC4 [staurosporine]
thymocyte survival / induced cell death (Caspase-9 −/− thymocytes [1]): reduced survival which was comparable to the death seen in controls
DNA laddering (Caspase-9 −/− thymocytes [2]; Caspase-9 deficient thymocytes, up to 24 hours of treatment): DNA laddering was also eliminated
DNA cleavage after long-term treatment (Caspase-9 −/− thymocytes [2]; Caspase-9 −/− thymocytes, 36 and 48 hours of continual treatment (data not shown)): did begin to cleave their DNA
